# Activity calls are given as the source filed them. No cut-off for these calls is given here.
# How the values were obtained:
# HeLa [1] = assay: Inhibition of cellular nuclear export in human HeLa cells transfected with hCRM1- C528T/F572Y dual mutant at 10 uM incubated for 72 hrs replaced with compound containing fresh culture medium every 12 hrs by Sulforhodamine B assay; assay type: functional, cell-based
# PANC-1 = assay: Anti-cancer activity against human PANC-1 cells assessed as cell survival at 10 uM for 72 hrs replaced with compound containing fresh culture medium every 12 hrs by Sulforhodamine B assay; assay type: functional, cell-based
# HepG2 [2] = assay: Anti-cancer activity against human HepG2 cells assessed as cell survival at 10 uM for 72 hrs replaced with compound containing fresh culture medium every 12 hrs by Sulforhodamine B assay; assay type: functional, cell-based
# A2780 [3] = assay: Induction of apoptosis in human A2780 cells assessed as necrotic cells at 10 uM replaced with compound containing fresh culture medium every 12 hrs measured for 72 hrs by Annexin V FITC/propidium iodide staining based flow cytometric analysis (reference value: 1%); assay type: functional
# HepG2 [4] = assay: Anti-cancer activity against human HepG2 cells assessed as inhibition of cell viability measured for 72 hrs replaced with compound containing fresh culture medium every 12 hrs by Sulforhodamine B assay; assay type: functional, cell-based
# HeLa [5] = assay: Inhibition of cellular nuclear export of transfected cargo in human HeLa cells transfected with pmCherry-C1 plasmid at 1 to 10 uM incubated for 12 hrs by confocal microscope analysis; assay type: functional, cell-based; settings: dose 1-10 µM
# A2780 [6] = assay: Induction of apoptosis in human A2780 cells assessed as necrotic cells at 5 uM replaced with compound containing fresh culture medium every 12 hrs measured for 72 hrs by Annexin V FITC/propidium iodide staining based flow cytometric analysis (reference value: 1%); assay type: functional
# HeLa [7] = assay: Anti-cancer activity against human HeLa cells assessed as cell viability at 20 uM incubated for 2 hrs by EdU incorporation based assay; assay type: functional
# A2780 [8] = assay: Anti-cancer activity against human A2780 cells assessed as fold reduction in DNA synthesis rate at 10 uM incubated for 2 hrs by EdU incorporation based assay; assay type: functional
# A2780 [9] = assay: Induction of apoptosis in human A2780 cells assessed as viable cells at 5 uM replaced with compound containing fresh culture medium every 12 hrs measured for 72 hrs by Annexin V FITC/propidium iodide staining based flow cytometric analysis (reference value: 93.97%); assay type: functional; settings: read-out: Activity
# HeLa [10] = assay: Anti-cancer activity against human HeLa cells assessed as inhibition of DNA synthesis at 1 to 10 uM incubated for 2 hrs by EdU incorporation based assay; assay type: functional, cell-based; settings: dose 1-10 µM
# [11] = biological target: Exportin-1 (Saccharomyces cerevisiae) (UniProt P30822); assay: Inhibition of GST-NES MVM binding to yeast CRM1 at 20 uM by pull down assay
# SW48 = assay: Anti-cancer activity against human SW48 cells assessed as cell survival at 10 uM for 72 hrs replaced with compound containing fresh culture medium every 12 hrs by Sulforhodamine B assay; assay type: functional, cell-based
# A2780 [12] = assay: Induction of apoptosis in human A2780 cells assessed as viable cells at 1 uM replaced with compound containing fresh culture medium every 12 hrs measured for 72 hrs by Annexin V FITC/propidium iodide staining based flow cytometric analysis (reference value: 93.97%); assay type: functional; settings: read-out: Activity
# A549 [13] = assay: Induction of apoptosis in human A549 cells assessed as cell death at 1 to 10 uM treated for 12 hrs by Annexin V FITC/propidium iodide staining based flow cytometric analysis; assay type: functional; settings: dose 1-10 µM
# A2780 [14] = assay: Anti-cancer activity against human A2780 cells assessed as inhibition of cell viability measured for 72 hrs replaced with compound containing fresh culture medium every 12 hrs by Sulforhodamine B assay; assay type: functional, cell-based
# MGC-803 = assay: Anti-cancer activity against human MGC-803 cells assessed as cell survival at 10 uM for 72 hrs replaced with compound containing fresh culture medium every 12 hrs by Sulforhodamine B assay; assay type: functional, cell-based
# A2780 [15] = assay: Induction of apoptosis in human A2780 cells assessed as late apoptotic cells at 5 uM replaced with compound containing fresh culture medium every 12 hrs measured for 72 hrs by Annexin V FITC/propidium iodide staining based flow cytometric analysis (reference value: 1.35%); assay type: functional
# HeLa [16] = assay: Inhibition of cellular nuclear export in human HeLa cells transfected with hCRM1-C528T/K568A dual mutant at 10 uM incubated for 72 hrs replaced with compound containing fresh culture medium every 12 hrs by Sulforhodamine B assay; assay type: functional, cell-based
# HeLa [17] = assay: Binding affinity to human CRM1 C528S mutant transfected HeLa cells assessed as inhibition of nuclear export of cargoes at 10 uM incubated for 12 hrs by confocal microscope analysis; assay type: cell-based
# HCT-116 = assay: Anti-cancer activity against human HCT-116 cells assessed as cell survival at 10 uM for 72 hrs replaced with compound containing fresh culture medium every 12 hrs by Sulforhodamine B assay; assay type: functional, cell-based
# A2780 [18] = assay: Anti-cancer activity against human A2780 cells assessed as cell survival at 10 uM for 72 hrs replaced with compound containing fresh culture medium every 12 hrs by Sulforhodamine B assay; assay type: functional, cell-based
# Exportin-1 [19] = biological target: T1, Exportin-1 (Homo sapiens, UniProt O14980); assay: Inhibition of MBP-NES PKI binding to human CRM1 in presence RanGTP at 20 uM by pull down assay
# T1 sequence (O14980 whole entry): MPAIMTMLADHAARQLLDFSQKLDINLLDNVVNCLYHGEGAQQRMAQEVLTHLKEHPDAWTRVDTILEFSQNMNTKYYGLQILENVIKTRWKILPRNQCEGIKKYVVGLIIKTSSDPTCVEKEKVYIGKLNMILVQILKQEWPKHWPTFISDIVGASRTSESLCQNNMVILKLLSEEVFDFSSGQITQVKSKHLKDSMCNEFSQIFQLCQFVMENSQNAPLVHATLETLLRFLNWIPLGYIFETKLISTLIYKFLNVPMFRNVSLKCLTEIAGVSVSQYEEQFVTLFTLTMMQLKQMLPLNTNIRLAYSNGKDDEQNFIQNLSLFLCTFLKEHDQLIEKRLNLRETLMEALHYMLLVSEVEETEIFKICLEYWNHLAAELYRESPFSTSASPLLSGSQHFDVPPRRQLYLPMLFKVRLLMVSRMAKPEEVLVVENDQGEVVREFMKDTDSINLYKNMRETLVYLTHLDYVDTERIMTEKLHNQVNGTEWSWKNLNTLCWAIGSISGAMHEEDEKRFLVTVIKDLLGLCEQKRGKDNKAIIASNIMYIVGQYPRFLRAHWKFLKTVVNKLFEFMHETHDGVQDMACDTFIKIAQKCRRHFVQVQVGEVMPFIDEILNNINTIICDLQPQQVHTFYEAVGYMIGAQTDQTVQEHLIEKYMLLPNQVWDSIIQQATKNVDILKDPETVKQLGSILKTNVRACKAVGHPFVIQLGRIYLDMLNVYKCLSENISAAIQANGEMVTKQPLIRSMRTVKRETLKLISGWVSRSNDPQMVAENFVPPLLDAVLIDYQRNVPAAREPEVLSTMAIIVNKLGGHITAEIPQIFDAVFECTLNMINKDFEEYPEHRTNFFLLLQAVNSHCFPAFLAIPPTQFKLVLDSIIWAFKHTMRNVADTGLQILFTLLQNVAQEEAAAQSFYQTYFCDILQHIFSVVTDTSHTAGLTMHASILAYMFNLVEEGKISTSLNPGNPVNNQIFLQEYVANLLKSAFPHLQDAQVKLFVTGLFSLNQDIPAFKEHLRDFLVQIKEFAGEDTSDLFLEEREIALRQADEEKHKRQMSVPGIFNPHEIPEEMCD
# Exportin-1 [20] = biological target: T1, Exportin-1; assay: Binding affinity to wild type human CRM1 transfected HeLa cells assessed as inhibition of nuclear export of cargoes at 10 uM incubated for 12 hrs by confocal microscope analysis; assay type: cell-based
# HGC-27 = assay: Anti-cancer activity against human HGC-27 cells assessed as cell survival at 10 uM for 72 hrs replaced with compound containing fresh culture medium every 12 hrs by Sulforhodamine B assay; assay type: functional, cell-based
# HeLa [21] = assay: Anti-cancer activity against human HeLa cells assessed as cell survival at 10 uM for 72 hrs replaced with compound containing fresh culture medium every 12 hrs by Sulforhodamine B assay; assay type: functional, cell-based
# HeLa [22] = assay: Anti-cancer activity against human HeLa cells assessed as inhibition of cell viability measured for 72 hrs replaced with compound containing fresh culture medium every 12 hrs by Sulforhodamine B assay; assay type: functional, cell-based
# A2780 [23] = assay: Induction of apoptosis in human A2780 cells assessed as late apoptotic cells at 1 uM replaced with compound containing fresh culture medium every 12 hrs measured for 72 hrs by Annexin V FITC/propidium iodide staining based flow cytometric analysis (reference value: 1.35%); assay type: functional
# A2780 [24] = assay: Induction of apoptosis in human A2780 cells assessed as early apoptotic cells at 1 uM replaced with compound containing fresh culture medium every 12 hrs measured for 72 hrs by Annexin V FITC/propidium iodide staining based flow cytometric analysis (reference value: 3.67%); assay type: functional
# A2780 [25] = assay: Anti-cancer activity against human A2780 cells assessed as fold increase Annexin V positive cells at 10 uM incubated for 2 hrs by EdU incorporation based assay; assay type: functional
# A549 [26] = assay: Anti-cancer activity against human A549 cells assessed as cell survival at 10 uM for 72 hrs replaced with compound containing fresh culture medium every 12 hrs by Sulforhodamine B assay; assay type: functional, cell-based
# A2780 [27] = assay: Induction of apoptosis in human A2780 cells assessed as viable cells at 10 uM replaced with compound containing fresh culture medium every 12 hrs measured for 72 hrs by Annexin V FITC/propidium iodide staining based flow cytometric analysis (reference value: 93.97%); assay type: functional; settings: read-out: Activity
# A2780 [28] = assay: Induction of apoptosis in human A2780 cells assessed as early apoptotic cells at 5 uM replaced with compound containing fresh culture medium every 12 hrs measured for 72 hrs by Annexin V FITC/propidium iodide staining based flow cytometric analysis (reference value: 3.67%); assay type: functional
# HeLa [29] = assay: Induction of apoptosis in human HeLa cells assessed as cell death at 1 to 10 uM treated for 12 hrs by Annexin V FITC/propidium iodide staining based flow cytometric analysis; assay type: functional; settings: dose 1-10 µM
# HeLa [30] = assay: Anti-cancer activity against human HeLa cells transfected with hCRM1-C528T/F572Y dual mutant assessed as cell survival at 10 uM for 72 hrs replaced with compound containing fresh culture medium every 12 hrs by Sulforhodamine B assay; assay type: functional, cell-based
# HeLa [31] = assay: Anti-cancer activity against human HeLa cells transfected with hCRM1-C528T/K568A dual mutant assessed as measuring cell survival at 10 uM for 72 hrs replaced with compound containing fresh culture medium every 12 hrs by Sulforhodamine B assay; assay type: functional, cell-based
# A2780 [32] = assay: Induction of apoptosis in human A2780 cells assessed as early apoptotic cells at 10 uM replaced with compound containing fresh culture medium every 12 hrs measured for 72 hrs by Annexin V FITC/propidium iodide staining based flow cytometric analysis (reference value: 3.67%); assay type: functional
# A2780 [33] = assay: Induction of apoptosis in human A2780 cells assessed as late apoptotic cells at 10 uM replaced with compound containing fresh culture medium every 12 hrs measured for 72 hrs by Annexin V FITC/propidium iodide staining based flow cytometric analysis (reference value: 1.35%); assay type: functional
# Exportin-1 [34] = biological target: T1, Exportin-1; assay: Binding affinity to Cy3 dye-labelled human CRM1 assessed as dissociation constant in absence of RanGTP at 10 uM incubated for 1 hr by micro-scale thermophoresis analysis
# A549 [35] = assay: Anti-cancer activity against human A549 cells assessed as inhibition of cell viability measured for 72 hrs replaced with compound containing fresh culture medium every 12 hrs by Sulforhodamine B assay; assay type: functional, cell-based
# HeLa [36] = assay: Cytotoxicity against human HeLa cells transfected with hCRM1-C528S-mutant assessed as cell viability measured for 72 hrs replaced with compound containing fresh culture medium every 12 hrs by Sulforhodamine B assay; assay type: functional, cell-based
# A2780 [37] = assay: Induction of apoptosis in human A2780 cells assessed as necrotic cells at 1 uM replaced with compound containing fresh culture medium every 12 hrs measured for 72 hrs by Annexin V FITC/propidium iodide staining based flow cytometric analysis (reference value: 1%); assay type: functional
# Saccharomyces cerevisiae = assay: Inhibition of NES binding to yeast CRM1-T539 mutant in absence of RanGTP at 20 uM by pull down assay
# HeLa [38] = assay: Inhibition of cellular nuclear export of endogenous cargo RanBP1 in human HeLa cells transfected with pmCherry-C1 plasmid at 1 to 10 uM incubated for 12 hrs by confocal microscope analysis; assay type: functional, cell-based; settings: dose 1-10 µM
# A549 [39] = assay: Anti-cancer activity against human A549 cells assessed as inhibition of DNA synthesis incubated for 2 hrs by EdU incorporation based assay; assay type: functional, cell-based; settings: dose 1-10 µM
# Huh-7 = assay: Anti-cancer activity against human HuH-7 cells assessed as cell survival at 10 uM for 72 hrs replaced with compound containing fresh culture medium every 12 hrs by Sulforhodamine B assay; assay type: functional, cell-based
# [40] = (§1) Inhibition of cellular nuclear export in human HeLa cells transfected with pmCherry-C1 Cargo plasmid assessed as cytoplasmic cargo level incubated for 12 hrs by confocal microscopic analysis; assay type: functional, cell-based
# HeLa [41] = assay: as §1; assay type: functional, cell-based; settings: dose 1-10 µM
# HeLa [42] = assay: Binding affinity to human CRM1 C528S mutant transfected HeLa cells assessed as inhibition of nuclear export of cargoes at 2 uM incubated for 12 hrs by confocal microscope analysis; assay type: cell-based
# Exportin-1 [43] = biological target: T1, Exportin-1; assay: Binding affinity to wild type human CRM1 transfected HeLa cells assessed as inhibition of nuclear export of cargoes at 2 uM incubated for 12 hrs by confocal microscope analysis; assay type: cell-based
smiles,measurement,setting,value
CC(C)CCNC/C=C/[S+]([O-])c1cc(C(F)(F)F)cc(C(F)(F)F)c1 (configuration not stated),inhibition,HeLa [1],inactive
same,Activity,PANC-1,Active
same,Activity,HepG2 [2],Active
same,Activity,A2780 [3],4.19%
same,IC50,HepG2 [4],2.9 µM
same,inhibition,HeLa [5],Active
same,Activity,A2780 [6],1.88%
same,Activity,HeLa [7],Active
same,fold change (FC),A2780 [8],5
same,viability at 5 µM,A2780 [9],79.2%
same,Activity,HeLa [10],Dose-Dependent Effect
same,inhibition,[11],Active
same,Activity,SW48,Active
same,viability at 1 µM,A2780 [12],92.8%
same,Activity,A549 [13],Dose-Dependent Effect
same,IC50,A2780 [14],5 µM
same,Activity,MGC-803,Active
same,Activity,A2780 [15],3.29%
same,inhibition,HeLa [16],inactive
same,inhibition,HeLa [17],Active
same,Activity,HCT-116,Active
same,Activity,A2780 [18],Active
same,inhibition,Exportin-1 [19],Active
same,inhibition,Exportin-1 [20],Active
same,Activity,HGC-27,Active
same,Activity,HeLa [21],Active
same,IC50,HeLa [22],3.8 µM
same,Activity,A2780 [23],1.33%
same,Activity,A2780 [24],4.71%
same,fold change (FC),A2780 [25],2
same,Activity,A549 [26],Active
same,viability at 10 µM,A2780 [27],64.4%
same,Activity,A2780 [28],15.55%
same,Activity,HeLa [29],Dose-Dependent Effect
same,IC50,HeLa [30],2.6 µM
same,IC50,HeLa [31],2 µM
same,Activity,A2780 [32],24.26%
same,Activity,A2780 [33],7.14%
same,Kd,Exportin-1 [34],0.024 µM
same,IC50,A549 [35],6.8 µM
same,IC50,HeLa [36],5.9 µM
same,Activity,A2780 [37],1.1%
same,inhibition,Saccharomyces cerevisiae,Active
same,inhibition,HeLa [38],Active
same,Activity,A549 [39],Dose-Dependent Effect
same,Activity,Huh-7,Active
same,EC50,[40],3.2 µM
same,inhibition,HeLa [41],Dose-Dependent Effect
O=C(/C=C\n1cnc(-c2cc(C(F)(F)F)cc(C(F)(F)F)c2)n1)NNc1cnccn1,Activity,PANC-1,Active
same,Activity,HepG2 [2],Active
same,inhibition,HeLa [42],inactive
same,Activity,SW48,Active
same,inhibition,Exportin-1 [43],inactive
same,Activity,MGC-803,Active
same,Activity,HCT-116,Active
same,Activity,A2780 [18],Active
same,Activity,HGC-27,Active
same,Activity,HeLa [21],Active
same,Activity,A549 [26],Active
same,Activity,HeLa [36],inactive
same,inhibition,Saccharomyces cerevisiae,inactive
same,Activity,Huh-7,Active

# Source: ChEMBL document CHEMBL5036314, “Structure-Guided Design of the First Noncovalent Small-Molecule Inhibitor of CRM1” (J Med Chem, 2021)
